Test results as given in article PMC7037732, “Synthesis of Combretastatin A-4 and 3′-Aminocombretastatin A-4 derivatives with Aminoacid Containing Pendants and Study of their Interaction with Tubulin and as Downregulators of the VEGF, hTERT and c-Myc Gene Expression” (Molecules, 2020).
Several values for one entry are separate records, joined by “and”; a condition that tells them apart may be missing. Equal values may be shown once. Entries after “also recorded” stand apart in the source; their conditions may differ.

Tests used:
tubulin = test: In vitro tubulin polymerization by turbidimetry (It50); type: biochemical; settings: turbidimetry at 350 nm, 37 °C; for Effect on in vitro tubulin polymerization: result in words; for It50 (time required to reach 50% of the polymerization): control 16.6 ± 1.0
Experimental: Figure 3 also includes polymerization curves in the presence of CA-4, AmCA-4 and paclitaxel. This test was also performed using paclitaxel, a microtubule stabilizing agent, as a control for the complete formation of microtubules (see Figure 3).

A-549 cells = test: Effect on the cellular microtubule network (immunofluorescence); type: cell-based, human
Experimental: The effect on the cellular microtubule network of CA-4 derivatives was studied for compounds 1, 3.7 (L-Thr-OMe), 3.8 (L-Tyr-OMe), 4.2 (L-Val) and 4.3 (L-Leu), which were those accumulating more cells in the G2/M phase. Thus, A-549 cells were incubated for 24 h in the presence of the above compounds and CA-4 at the concentrations indicated in Figure 4.
The effect of some derivatives on the cellular microtubule network were also studied on A-549 cells. The selected compounds were 7.1 (Fmoc-Gly) (0.5 μM), 8.1 (Gly) (2 μM), 8.2 (L-Ala) (3 μM) and 10.1 (D-Val) (40 μM), which were those exerting a higher effect on the cell cycle.
For immunofluorescence microscopy of the microtubule network, 10^6 cells were plated on cover glass and incubated with the different drugs. Cells were then fixed in 3.7% formaldehyde (in PBS pH 7.4) for 20 min at room temperature and permeabilized with PBS-Triton X-100 0.5% for 10 min at room temperature. Direct immunostaining was carried out for 2 h at room temperature with a primary FITC-conjugated anti-α-tubulin antibody (dilution 1:400 in PBS-BSA 1% from a 1 mg/mL solution; monoclonal antibody, clone DM1A; Sigma-Aldrich, Darmstadt, Germany.). Next, cells were incubated for 45 min at room temperature in darkness with secondary Alexa Fluor 488-conjugated antibodies (dilution 1:200 each from 1.5 mg/mL; Molecular Probe, France). Then, cells were washed in PBS and cover glasses were mounted with a drop of ProLong® antifade solution (Invitrogen). The cytoskeleton was imaged by a confocal laser scanning microscope (CLSM) Leica SP5 with a Leica inverted microscope, equipped with a Plan-Apochromat 63× oil immersion objective (NA = 1.4). Each image was recorded with the CLSM’s spectral mode selecting specific domains of the emission spectrum. The FITC fluorophore was excited at 488 nm with an argon laser, and its fluorescence emission was collected between 496 nm and 535 nm.

SMILES | Effect on in vitro tubulin polymerization (tubulin) | It50 (time required to reach 50% of the polymerization) (tubulin) | further results
COc1ccc(/C=C\c2cc(OC)c(OC)c(OC)c2)cc1N [AmCA-4, 3′-aminocombretastatin A-4] | almost no absorbance is detected |  | Effect on the microtubule network (A-549 cells; A-549, 24 h, 50 nM): total depolymerization of microtubules
COc1ccc(/C=C\c2cc(OC)c(OC)c(OC)c2)cc1O [CA-4, combretastatin A-4] | almost no absorbance is detected |  | Effect on the microtubule network (A-549 cells; A-549, 24 h, 50 nM): greatly depolymerizes microtubules
COc1ccc(/C=C\c2cc(OC)c(OC)c(OC)c2)cc1NC(=O)CNC(=O)OCC1c2ccccc2-c2ccccc21 [Compound 7.1] |  | 16 ± 3 min | Effect on the microtubule network (A-549 cells; A-549, 0.5 μM): almost total depolymerization of the microtubule network
COc1ccc(/C=C\c2cc(OC)c(OC)c(OC)c2)cc1NC(=O)CN [Compound 8.1] |  | 18.5 ± 2.1 min | Effect on the microtubule network (A-549 cells; A-549, 2 μM): almost total depolymerization of the microtubule network
COc1ccc(/C=C\c2cc(OC)c(OC)c(OC)c2)cc1NC(=O)[C@H](C)N [Compound 8.2] | able to delay the polymerization process; also recorded: partial inhibitors of the polymerization process; also recorded: partial inhibitors of the in vitro polymerization of tubulin | 48 ± 5 min | Effect on the microtubule network (A-549 cells; A-549, 3 μM): almost total depolymerization of the microtubule network
COc1ccc(/C=C\c2cc(OC)c(OC)c(OC)c2)cc1NC(=O)[C@@H](N)Cc1ccccc1 [Compound 8.5] |  |  | Effect on the microtubule network (A-549 cells; A-549, 0.5 μM): much less active
COc1ccc(/C=C\c2cc(OC)c(OC)c(OC)c2)cc1NC(=O)[C@@H](N)C(C)O (some centres unmarked) [Compound 8.7] | able to delay the polymerization process; also recorded: partial inhibitors of the polymerization process; also recorded: partial inhibitors of the in vitro polymerization of tubulin | 65 min and 65 ± 7 min | 
